{"source": "patent US7205383B2", "about": "“Peptide ligands of leukocyte integrins” (Karyon-CTT Ltd., priority 2001, dated 2007)", "key": {"[1]": {"system": "αLβ2 integrin-mediated binding of Jurkat cells to ICAM-1-Fc", "assay": "Jurkat cell adhesion to ICAM-1-Fc", "assay_type": "cell-based", "method": "In FIG. 4(A), Jurkat cells were allowed to attach to immobilized ICAM-1-Fc in microtiter wells in the absence or presence of LLG-C4 peptides. Following a 45 min incubation, the unbound cells were removed by immersing the microtiter plate upside down on a decanter containing PBS, and the attached cells were stained with Crystal Violet.\n(§1) Fibrinogen, fibronectin, von Wrlnebrand factor, type IV collagen, GST fusion proteins, Fc fusion proteins or synthetic peptides were coated on microtiter wells at a concentration of 2 μg in 50 μl TBS unless otherwise indicated. A recombinant von Willebrand factor and a capturing antibody to it kindly provided by Drs. J. J. Sixma and Ph. G. de Groot (University Medical Center Utrecht, the Netherlands) were also used. To prepare polymerized peptides, glutaraldehyde was added at a final concentration of 0.25%. The wells were saturated with 5% BSA and then washed five times with PBS. Prior to adhesion assays, cells were treated with 50 nM 40-Phorbol 12,13-dibutyrate or with 200 μM P1 peptide (Kotovuori et al., 1999) in serum-free medium for 30 min at room temperature to activate the integrins. […] The bound cells were determined by an assay measuring cellular phosphatase activity. […] The absorbance at 405 nm was read on a microplate reader. […]"}, "[2]": {"system": "THP-1 cells on von Willebrand factor", "assay_type": "cell-based", "conditions": "phorbol ester-activated THP-1; read-out: IC50, inhibition of THP-1 cell binding to von Willebrand factor", "method": "In FIG. 5(A), THP-1 cell binding to von Wirebrand factor was examined in the presence of antibodies against the β2 (7E4), αvβ3 (LM609) or αIIbβ3 (P2) integrins. Following a 60 min incubation in von Willebrand factor-coated wells, the bound cells were determined. The data are the mean ±SD of triplicate wells. The experiment was repeated three times.\n(§2) In FIG. 5(B), TRP-1 cells were allowed to bind to microtiter wells coated with von Willebrand factor, type IV collagen, or fibronectin. The C(1–8;3–9) peptide was included as a competitor in the concentrations described. The bound cells were determined by the phosphatase assay. The data are the mean ±SD of triplicate wells and were similar in four other experiments.\nas §1, with “integrins. Alternatively, cells were stimulated for 60 min at 37° C. with the phorbol ester (50 nM) and the C(1–8;3–9) and RGD-4C peptides each at a 2.5 μM concentration, after which the peptides were removed by washing with PBS/2.5 mM EDTA. Cells were incubated in the microtiter wells (100 000 cells per well) for 60 min at 37° C. in the absence or presence of competing peptides, antibodies or EDTA.” for “integrins.”"}, "[3]": {"system": "THP-1 cells on type IV collagen", "assay": "THP-1 cell adhesion on type IV collagen", "assay_type": "cell-based", "conditions": "phorbol ester-activated THP-1; read-out: IC50, inhibition of THP-1 adhesion on type IV collagen", "method": "as §2, §1"}, "[4]": {"system": "THP-1 cells (β2 integrins)", "conditions": "soluble peptide", "method": "In FIG. 2(A), phorbol ester-activated THP-1 cells were allowed to bind for 60 min to microtiter wells coated with LLG-C4-GST, GST, or albumin. EDTA was included at a 2.5 mM concentration. The bound cells were determined by the assay measuring cellular phosphatase activity. The data are the means ±SD from triplicate wells.\nIn FIG. 2(B), THP-1 cells were mixed with each antibody against the β1, β2, β3, αL, αM, or αX integrin subunit as indicated at a concentration of […]. An aliquot of cells was then transferred to wells coated with LLG-C4-GST and incubated for 60 min at 37° C. Following washing the bound cells were determined by the phosphatase assay. The results are the mean % adhesion ±SD of 2–4 independent experiments each done in triplicate wells.\nIn FIG. 3(A), TBP-1 cells were mixed in suspension with the peptide containing either the C(1–8;3–9) or C(1–9;3–8) disulfide. The final concentrations of the peptides are indicated. Cells were then incubated for 60 min at 37° C. in microtiter wells coated with LLG-C4-GST. After washing the wells, the bound cells were quantitated by the phosphatase assay. The results are the mean ±SD from triplicate wells.\nIn FIG. 3(B), THP-1 cell binding to LLG-C4-GST was examined in the presence of the C(1–8;3–9), CLLGC (SEQ ID NO: 4) or the CAAGC (SEQ ID NO: 5) peptide. The synthetic peptides were used at the concentrations indicated. Following a 60 min incubation the wells were washed and the bound cells were determined by the phosphatase assay.\nFibrinogen, fibronectin, von Wrlnebrand factor, type IV collagen, GST fusion proteins, Fc fusion proteins or synthetic peptides were coated on microtiter wells at a concentration of 2 μg in 50 μl TBS unless otherwise indicated. A recombinant von Willebrand factor and a capturing antibody to it kindly provided by Drs. J. J. Sixma and Ph. G. de Groot (University Medical Center Utrecht, the Netherlands) were also used. To prepare polymerized peptides, glutaraldehyde was added at a final concentration of 0.25%. The wells were saturated with 5% BSA and then washed five times with PBS. Prior to adhesion assays, cells were treated with 50 nM 40-Phorbol 12,13-dibutyrate or with 200 μM P1 peptide (Kotovuori et al., 1999) in serum-free medium for 30 min at room temperature to activate the integrins. Alternatively, cells were stimulated for 60 min at 37° C. with the phorbol ester (50 nM) and the C(1–8;3–9) and RGD-4C peptides each at a 2.5 μM concentration, after which the peptides were removed by washing with PBS/2.5 mM EDTA. Cells were incubated in the microtiter wells (100 000 cells per well) for 60 min at 37° C. in the absence or presence of competing peptides, antibodies or EDTA. Unbound cells were removed by gently washing with PBS and pressing the plate against paper towels. The bound cells were determined by an assay measuring cellular phosphatase activity. Briefly, 100 μl of 50 mM sodium acetate buffer, pH 5.0, containing 1% Triton X-100 and 6 mg/ml p-nitrophenyl phosphate was added per well and incubated for 1 h at 37° C. The reaction was stopped with 50 μl of 1 M NaOH. The absorbance at 405 nm was read on a microplate reader. Alternatively, the attached cells were stained with Crystal Violet essentially as described (Mould et al., 1995)."}, "[5]": {"assay": "Water solubility of the peptides", "assay_type": "physicochemical", "conditions": "compared with the C(1–9;3–8) peptide"}, "[6]": {"system": "THP-1 cells on fibrinogen", "assay": "THP-1 cell adhesion to fibrinogen", "assay_type": "cell-based", "method": "Following a 60 min incubation the bound cells were determined by the phosphatase assay. The results are the mean ±SD of triplicate wells and were similar in two other experiments.\nIn FIG. 6(B), to activate integrins, THP-1 cells were stimulated both with phorbol ester (50 nM) and the RGD-4C and C(1–8;3–9) peptides (each 2.5 μM for 1 h. After washing the cells were allowed to bind to fibrinogen-coated wells in the presence of C(1–8;3–9) or RGD-4C or both peptides at the concentrations indicated. After a 30-min incubation the bound cells were determined. The results are the mean ±SD of triplicate wells and were similar in two other experiments. At some data points the SD values are too small to be seen.\nas §1, with “0.25%.” for “0.25%. The wells were saturated with 5% BSA and then washed five times with PBS. Prior to adhesion assays, cells were treated with 50 nM 40-Phorbol 12,13-dibutyrate or with 200 μM P1 peptide (Kotovuori et al., 1999) in serum-free medium for 30 min at room temperature to activate the integrins.”"}, "[7]": {"system": "T cells binding to Eahy926 endothelial cells (ICAM-1)", "assay": "T cell binding to TNF-α-stimulated endothelial cell monolayer", "assay_type": "cell-based", "conditions": "peptide 50 μM, 45 min", "method": "In FIG. 4(B), T cells were allowed to bind to TNF-α-stimulated Eahy endothelial cell monolayers that were grown on microtiter wells. LLG-C4 or RGD-4C was included at a concentration of 50 μM. After a 45 min incubation, the unbound cells were removed by immersing the microtiter plate in a PBS solution, and the bound T cells were determined by the phosphatase assay. The data are the mean ±SD of triplicate wells.\nTo study T cell binding to an endothelial cell monolayer, Eahy926 endothelial cells were plated on microtiter plates at a density of 5×10^4 cells per well and grown for three days. To stimulate the production of ICAM-1, the cells were further grown for 16 h in the presence of TNF-α at a concentration of 10 ng/ml. T cells (1.5×10^5 per well) were allowed to bind to Eahy926 cells first for 30 min at 4° C., then 15 min at 37° C. The unbound T cells were removed by immersing the microtiter plate up side down in PBS. The bound cells were determined by the phosphatase assay."}, "[8]": {"system": "THP-1 cells", "assay": "Transwell cell migration assay, fibrinogen-coated filters", "assay_type": "cell-based", "conditions": "peptide 200 μM, 10% serum, 18 h", "method": "In FIG. 6(C), Transwell filters were coated both on the upper and lower surface with fibrinogen, or left uncoated, and then saturated with BSA. TBP-1 cells (5×10^4 per filter) were plated on the upper surface of the filter in 10% serum-containing medium. The concentrations of C(1–8;3–9) and C(1–9;3–8) were 200 μM. Following a 18 hour-culture, the cells migrated underneath the filter were determined. The cells were fixed, stained, and then counted under a microscope.\nThe in vitro migration of THP-1 cells was studied in closely physiological conditions containing 10% serum to not interfere with adhesive properties of cells. Both the upper and lower surfaces of 8 μm pore size Transwell filters were coated with fibrinogen, LLG-C4-GST, or GST at a concentration of 40 μg/ml overnight at 4° C. Free binding sites were blocked by incubation with 5% BSA/TBS. THP-1 cells (5×10^4 in 100 μl) were plated on the upper compartment in 10% FCS-containing medium. The C(1–8;3–9) or C(1–9;3–8) peptide were included at a concentration of 200 μM. The lower compartment was filled with 750 μl of 10% FCS-containing medium. Following a culture for 18 h at 37° C. the filters were immersed in methanol for 15 min, in water for 10 s, and in 0.1% toluidine blue for 5 min. […] Cells were removed from the upper surface of the filter with a cotton swap, and cells migrated on the lower surface were counted microscopically. […]"}, "[9]": {"system": "THP-1 cells", "assay": "THP-1 cell adhesion on wells coated with synthetic peptides", "assay_type": "cell-based", "method": "In FIG. 2(C), the C(1–8;3–9) and C(1–9;3–8) peptides were coated on microtiter wells by incubating overnight at a concentration of 40 μg/ml in TBS in the absence or presence of glutaraldehyde. Free binding sites on plastic were then blocked with 5% BSA. THP-1 cells ([…]) were allowed to bind for 60 min at 37° C. […] The experiment was repeated twice.\nas §1"}}, "note": "Bridge positions count the residues as written; N and C are the ends. Peptide text beside a SMILES is read from it."}
{"molecule": "CC(C)C[C@@H]1NC(=O)[C@H](CC(C)C)NC(=O)[C@H](Cc2ccccc2)NC(=O)[C@@H]2CSSC[C@@H](C(=O)O)NC(=O)[C@H](CSSC[C@H](N)C(=O)N3CCC[C@H]3C(=O)N2)NC(=O)CNC1=O", "note": "[C(1–8;3–9), CPCFLLGCC] (H-CPCFLLGCC-OH; disulfide 1-8, 3-9; N-terminus and C-terminus assumed)", "values": [{"measurement": "IC50", "setting": "[1]; ICAM-1-Fc directly coated or captured via protein A, read-out: IC50, inhibition of Jurkat cell adhesion to ICAM-1-Fc", "result": "~80", "unit": "µM"}, {"measurement": "IC50", "setting": "[2]", "result": "~20", "unit": "µM"}, {"measurement": "IC50", "setting": "[3]", "result": "~200", "unit": "µM"}, {"measurement": "IC50", "setting": "[4]; read-out: IC50, inhibition of THP-1 cell adhesion on LLG-C4-GST, 60 min at 37° C.", "result": 20, "unit": "µM"}, {"measurement": "water solubility", "setting": "[5]", "result": "poorer water solubility"}]}
{"molecule": "ACDCRGDCFCG [RGD-4C, RGD-containing peptide, ligand of several β1 and β3 integrins, reference compound]", "values": [{"measurement": "inhibition of THP-1 adhesion on fibrinogen after peptide pre-stimulation", "setting": "[6]; cells pre-stimulated with phorbol ester (50 nM) and RGD-4C and C(1–8;3–9) each 2.5 μM, 30-min incubation", "result": "more effectively than C(1–8;3–9)"}, {"measurement": "effect on T cell binding to TNF-α-stimulated endothelial cells", "setting": "[7]", "result": "no effect"}]}
{"molecule": "CPCFLLGCC [C(1–9;3–8), LLG-C4 conformer with disulfide bridges C1–C9 and C3–C8]", "values": [{"measurement": "inhibition of THP-1 adhesion to fibrinogen", "setting": "[6]; phorbol ester-stimulated THP-1, 60 min", "result": "no effect"}, {"measurement": "inhibition of Jurkat cell adhesion to ICAM-1-Fc", "setting": "[1]; compared with C(1–8;3–9)", "result": "several fold less active and had hardly any effect"}, {"measurement": "fold less active than C(1–8;3–9), THP-1 adhesion on LLG-C4-GST", "setting": "[4]", "result": 20, "unit": "fold"}, {"measurement": "inhibition of THP-1 cell migration through fibrinogen-coated filter", "setting": "[8]", "result": "inhibited only partially"}, {"measurement": "THP-1 cell binding to coated peptide crosslinked with glutaraldehyde", "setting": "[9]; peptide coated at 40 μg/ml in presence of glutaraldehyde", "result": "gave no cell binding"}, {"measurement": "THP-1 cell binding to coated peptide", "setting": "[9]; peptide coated at 40 μg/ml, without glutaraldehyde", "result": "failed to bind"}]}
